Measurements taken from the NIST ThermoML archive (doi:10.1016/j.jct.2012.04.005).
“And” between values parts separate entries of the source, which are not always exact repeats. Equal entries are not always repeated.

Settings: isochoric method

CCOCC [diethyl ether]
Liquid
Settings	mass density
416.1 K	534.6 kg/m3
425.19 K	517.3 kg/m3
437.14 K	485.2 kg/m3
450.6 K	441.5 kg/m3
450.77 K	440.8 kg/m3
459.61 K	394.8 kg/m3
464.79 K	348.2 kg/m3
466.12 K	212.6 kg/m3
466.47 K	310.8 kg/m3
466.66 K	233.7 kg/m3
466.75 K	296.7 kg/m3
466.8 K	288.3 kg/m3
466.81 K	278.7 kg/m3
466.82 K	275.7 kg/m3
466.83 K	255 kg/m3 and 260.7 kg/m3

Settings	mass density [kg/m3]
416.3 K, 1625 kPa, Liquid	534.6
416.83 K, 1747 kPa, Liquid	534.6
416.93 K, 1693 kPa, Liquid	534.6
417.26 K, 1783 kPa, Liquid	534.6
418.11 K, 2014 kPa, Liquid	534.6
420.91 K, 2770 kPa, Liquid	534.6
421.09 K, 2823 kPa, Liquid	534.6
422.05 K, 3084 kPa, Liquid	534.6
425.27 K, 1926 kPa, Liquid	517.3
425.69 K, 4074 kPa, Liquid	534.6
425.75 K, 2146 kPa, Liquid	517.3
425.83 K, 2193 kPa, Liquid	517.3
425.96 K, 4149 kPa, Liquid	534.6
426.06 K, 2271 kPa, Liquid	517.3
426.78 K, 2602 kPa, Liquid	517.3
427.43 K, 4552 kPa, Liquid	534.6
432.78 K, 5984 kPa, Liquid	534.6
432.99 K, 6050 kPa, Liquid	534.6
433.93 K, 6306 kPa, Liquid	534.6
437.48 K, 2381 kPa, Liquid	485.2
437.61 K, 2392 kPa, Liquid	485.2
437.68 K, 2382 kPa, Liquid	485.2
437.79 K, 2430 kPa, Liquid	485.2
438.72 K, 2616 kPa, Liquid	485.2
438.85 K, 7649 kPa, Liquid	534.6
439.14 K, 7729 kPa, Liquid	534.6
439.97 K, 7955 kPa, Liquid	534.6
445.62 K, 3997 kPa, Liquid	485.2
445.85 K, 4046 kPa, Liquid	485.2
446.57 K, 4191 kPa, Liquid	485.2
448.81 K, 10345 kPa, Liquid	534.6
449.04 K, 10408 kPa, Liquid	534.6
449.96 K, 10662 kPa, Liquid	534.6
450.97 K, 2954 kPa, Liquid	441.5
450.98 K, 2969 kPa, Liquid	440.8
451.08 K, 2998 kPa, Liquid	440.8
451.17 K, 3017 kPa, Liquid	440.8
451.49 K, 3039 kPa, Liquid	441.5
451.69 K, 3088 kPa, Liquid	441.5
452.31 K, 3185 kPa, Liquid	440.8
452.82 K, 3254 kPa, Liquid	441.5
459.55 K, 6842 kPa, Liquid	485.2
459.83 K, 6900 kPa, Liquid	485.2
460.03 K, 3345 kPa, Liquid	394.8
460.23 K, 3396 kPa, Liquid	394.8
460.36 K, 3392 kPa, Liquid	394.8
460.5 K, 13585 kPa, Liquid	534.6
460.64 K, 7064 kPa, Liquid	485.2
460.64 K, 13628 kPa, Liquid	534.6
461.45 K, 3512 kPa, Liquid	394.8
461.55 K, 13877 kPa, Liquid	534.6
461.58 K, 4562 kPa, Liquid	441.5
461.85 K, 4602 kPa, Liquid	441.5
461.98 K, 4645 kPa, Liquid	440.8
462.66 K, 4726 kPa, Liquid	441.5
463.06 K, 4812 kPa, Liquid	440.8
465.09 K, 3597 kPa, Liquid	348.2
465.58 K, 3635 kPa, Liquid	348.2
465.68 K, 3649 kPa, Liquid	348.2
465.84 K, 3662 kPa, Liquid	348.2
466.13 K, 3555 kPa, Gas	212.6
466.67 K, 3560 kPa, Gas	233.7
466.68 K, 3578 kPa, Gas	212.6
466.76 K, 3609 kPa, Liquid	296.7
466.85 K, 3565 kPa, Gas	260.7
